Measurements taken from patent US12552834B2, “Selective MENA binding peptides” (MASSACHUSETTS INSTITUTE OF TECHNOLOGY, priority 2021, dated 2026).
“Also recorded” adds a separate entry of the source. Where no end group is shown, it is not given here. disordered linker = not defined here

Key:
ENAH EVH1 domain [1] = target: T1, ENAH EVH1 domain (Homo sapiens, UniProt Q8N8S7); experiment: Isothermal titration calorimetry (ITC), SUMO-peptide titrated into ENAH EVH1 domain; assay type: binding; conditions: 25° C.
T1 construct: places a 6×-His and TEV cleavage tag N-terminal to the EVH1 domain; 6×-His + TEV cleavage site (N, cleaved yes); made in house; host or cells: E. coli Rosetta2(DE3)
T1 sequence (Q8N8S7 with tags, fused parts or gaps): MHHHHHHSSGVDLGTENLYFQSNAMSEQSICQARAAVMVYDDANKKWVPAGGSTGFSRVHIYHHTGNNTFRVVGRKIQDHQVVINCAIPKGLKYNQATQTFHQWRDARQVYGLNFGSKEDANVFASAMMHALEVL
Experimental: ITC experiments were performed with two replicates using a VP-ITC microcalorimeter (MicroCal LLC). To prepare samples for ITC, 2.5 mL of 100 μM ENAH EVH1 domain and 1 mL of 800 μM-1.2 mM of SUMO-peptide fusions were dialyzed against 2 μL of ITC Buffer (20 mM Hepes pH 7.6, 150 mM NaCl, 1 mM TCEP) at 4° C. overnight. The concentrations of proteins were remeasured after dialysis on the day of experiment. SUMO-peptide was titrated into ENAH EVH1 domain at 25° C. Data analysis and curve fitting were performed with the Origin 7.0 software (OriginLab). Errors reported as the standard deviation of two replicates.
SUMO-peptide fusions were cloned into a pDW363 vector that appends a BAP and 6×-His tag to the N-terminus of the protein and transformed into Rosetta2(DE3) cells. For ITC experiments, these cells were expressed in TB supplemented with 100 μg/mL ampicillin, grown to an O.D. 600 of 0.5-0.7, and induced with 1 mM IPTG. Induced cultures were purified as described above for the pMCGS7 constructs, with the exception of the TEV cleavage step. Instead, after elution with elution buffer, the sample was directly applied to the S75 26/60 column equilibrated in gel filtration buffer. Fractions were pooled, concentrated, and flash frozen at −80° C.

ENAH EVH1 domain [2] = target: T1, ENAH EVH1 domain; experiment: Biolayer interferometry (BLI), SUMO-peptide fusions binding monomeric ENAH EVH1 domain WT
Experimental: All BLI experiments were performed with 2 replicates on an Octet Red96 instrument (ForteBio). […] The loaded tips were immersed in a solution of ENAH EVH1 domain at a relevant dilution series in BLI buffer at an orbital shake speed of 1000 rpm and run until the binding signal plateaued. ENAH-bound tips were subsequently placed into BLI buffer only for dissociation and run until the binding signal plateaued. KD values were obtained through steady state analysis. […] The association phases were then fit to a one-phase binding model in Prism and the equilibrium steady-state binding signal values from that fit were plotted against ENAH concentration and fit to a single-site specific binding model in Prism to obtain dissociation constants. Errors reported are the standard deviation of two replicates.
Monomeric ENAH, EVL, or VASP EVH1 domains for use in BLI and ITC experiments, or ENAH EVH1-peptide fusions for crystallography was cloned into a pMCSG7 vector (gift from Frank Gertler, MIT), which places a 6×-His and TEV cleavage tag N-terminal to the EVH1 domain. These constructs were transformed into Rosetta2(DE3) cells and grown in 2×YT media supplemented with 100 μg/mL ampicillin. Cells were grown while shaking at 37° C. to an O.D. 600 of 0.5-0.7, and then cooled on ice for at least 20 minutes. They were then induced with 0.5 mM IPTG and grown while shaking at 18° C. overnight. Induced cultures were resuspended in 25 mL of wash buffer (20 mM Hepes pH 7.6, 500 mM NaCl, 20 mM imidazole) and frozen at −80° C. overnight. The next day, cultures were sonicated, spun down, and applied to Ni-NTA acid agarose resin equilibrated with wash buffer, and washed as described above. Samples were eluted in 10 mL elution buffer (20 mM Hepes pH 7.6, 500 mM NaCl, […]). TEV protease was added to the elution at a ratio of 1 mg TEV:50 mg tagged protein along with 1 mM DTT. This mixture was dialyzed against TEV cleavage buffer (50 mM Hepes pH 8.0, 300 mM NaCl, 5 mM DTT, 1 mM EDTA) at 4° C. overnight and then applied over Ni-NTA acid agarose resin equilibrated with wash buffer. The column was washed with 2×8 mL of wash buffer, and the resulting flow-through and washes were pooled, concentrated, and applied to an S75 26/60 column equilibrated in gel filtration buffer (20 mM Hepes pH 7.6, 150 mM NaCl, 1 mM DTT, 1% glycerol). Purity was verified by SDS-PAGE and combined fractions were concentrated and flash frozen at −80° C.
Rosetta2(DE3) cells (Novagen) were transformed with pDW363 vector encoding 6×-His-SUMO-peptide fusions and grown in 20 mL of LB+100 μg/mL Ampicillin+0.050 mM D-(+)-Biotin dissolved in DMSO for in vivo biotinylation. Cells were grown to an OD of 0.5-0.7 with 1 mM IPTG and induced for 4-6 hours at 37° C. Pellets were spun down and frozen and −80° C. for at least 2 hours. These pellets were then thawed and resuspended in B-PER reagent (ThermoFisher) at 4 mL/gram of pellet with 0.2 mM PMSF. This suspension was shaken at 25° C. for 10-15 minutes, and then spun down at 15,000 g for 10 minutes. The supernatant was applied to 250 μL of Ni-NTA acid agarose resin equilibrated in 20 mM Tris pH 8.0, 500 mM NaCl, 20 mM Imidazole (Buffer A), and then washed 3 times with 1 mL of this buffer. Peptides were eluted in 1.8 mL of 20 mM Tris pH 8.0, 500 mM NaCl, 300 mM imidazole to use in BLI assays.

[3] = system: MV^D7shEVL cells expressing GFP-ENAH, GFP-EVL or GFP-VASP; experiment: Live-cell imaging of PCARE constructs co-expressed with GFP-tagged Ena/VASP paralogs; assay type: cell-based, mice
Excerpt: MV^D7 are embryonic fibroblasts derived from Enah^−/− Vasp^−/− mice, with low Evl expression (Auerbach 2003, Damiano-Guercio 2020). As Ena/VASP family members are known to heterotetramerize (Riquelme 2015), we used an shRNA against Evl to provide a clean background (average knockdown of MV^D7shEVL versus MV^D7 42.8+/−1.8% by qPCR, 3 biological replicates).
Together, these findings indicate that PCARE interacts specifically with ENAH and is capable of recruiting ENAH away from its normal functional sites. […]
Cells were imaged on a Ti-E inverted microscope (Nikon), with a 100× Apo TIRF 1.49 NA objective (Nikon) and an ORCA-Flash 4.0 V2 CMOS camera (Hamamatsu). For focal adhesion assessment, cells were imaged with total internal reflection fluorescence (TIRF) microscopy. To increase the depth of imaging for examination of mitochondrial localization, standard widefield fluorescence microscopy was used. Focal adhesion quantification was performed as previously described (Puleo 2019). […] Focal adhesion area was quantified by measuring the paxillin area of each cell within the whole cell area, or by examining individual focal adhesions. […]

Row | Compound | ITC binding model (ENAH EVH1 domain [1]) | ITC thermodynamic driving force of binding (ENAH EVH1 domain [1]) | binding to monomeric ENAH EVH1 domain by BLI, in words (ENAH EVH1 domain [2]) | further results
1 | CC[C@H](C)[C@H](NC(=O)[C@H](CO)NC(=O)[C@@H]1CCCN1C(=O)[C@H](CC(C)C)NC(=O)[C@H](C)NC(=O)[C@H](CO)NC(=O)[C@H](CO)NC(=O)[C@H](CC(=O)O)NC(=O)[C@H](CC(=O)O)NC(=O)[C@H](CC(C)C)NC(=O)[C@@H]1CCCN1C(=O)[C@@H]1CCCN1C(=O)[C@@H]1CCCN1C(=O)[C@@H]1CCCN1C(=O)[C@@H]1CCCN1C(=O)[C@@H]1CCCN1C(=O)[C@H](CC(C)C)NC(=O)[C@H](Cc1ccccc1)NC(=O)[C@H](CC(=O)O)NC(=O)CNC(=O)[C@H](CCC(=O)O)NC(=O)CNC(=O)CNC(=O)[C@@H]1CCCN1C(=O)[C@H](CCC(N)=O)NC(=O)[C@@H](N)CCCCN)C(=O)N[C@@H](CO)C(=O)NCC(=O)N[C@@H](CC(N)=O)C(=O)N[C@@H](Cc1ccccc1)C(=O)N1CCC[C@H]1C(=O)N1CCC[C@H]1C(=O)N1CCC[C@H]1C(=O)N1CCC[C@H]1C(=O)N1CCC[C@H]1C(=O)N[C@@H](CC(C)C)C(=O)O [LPP] | fit well to a 1:1 binding model | enthalpically driven | – | reduction in affinity (ENAH EVH1 domain [2]; sequence between the two motifs replaced with a Gly-Ser linker): ~4 fold
2 | ADRSPFLPPPPPVTDCSQGSPLPHSPVFPPPPPEAL-OH [NHSL1] | fit well to a 1:1 binding model | enthalpically driven | – | –
3 | GSTQDVQSSPHNQFTFRPLPPPPPPPHACTCARKPP [TENM1] | – | – | – | Kd (ENAH EVH1 domain [2]; BLI, ENAH EVH1 domain): > 60 µM
4 | ILSGLPAPDFIDYPERQECNCRPQESPYVSGMKTCH [TRIM1, CXC-motif peptide from E3 ubiquitin ligase TRIM1] | – | – | did not saturate; also recorded: bound weakly and reversibly | –
5 | PPAPEEQDLSMADFPPPEEAFFSVASPEPAGPSGSP [KIAAA1522] | – | – | mid-micromolar affinity | –
6 | mRuby2-PCARE: PCARE^822-848 tagged at the N-terminus with mRuby2 and a disordered linker, lentiviral expression ({mRuby2-disordered linker}-EMEGNLEHLPPPPMEVLMDKSFASLES; reading uncertain; UniProt A6NGG8 822-848, looked up, fragment) | – | – | – | localization of the PCARE construct ([3]; all conditions except co-expression with ENAH (GFP, ΔEVH1-ENAH, EVL, VASP)): diffuse cytoplasmic localization; localization of the PCARE construct ([3]; co-expressed with GFP-ENAH): moderately recruited to focal adhesions
